Reference: PubChem BioAssay (NCI)
Values joined by “and” are separate entries in the source; they are usually repeats but may differ in a detail not shown here. Equal entries are not always repeated.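 Following 48 hours of exposure in 96-well plates, responses at five concentrations were used to interpolate endpoints linearly. GI50 marks 50% less growth. TGI: concentration producing complete growth inhibition.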

Key:
Experiment in all cases: DTP human tumour cell line panel, 48 h
OVCAR-5 ovarian = system: OVCAR-5 ovarian
NCI-H460 lung = system: NCI-H460 lung
SK-OV-3 ovarian = system: SK-OV-3 ovarian
OVCAR-8 ovarian = system: OVCAR-8 ovarian
UO-31 renal = system: UO-31 renal
HT29 colon = system: HT29 colon
786-0 renal = system: 786-0 renal
HCT-116 colon = system: HCT-116 colon
NCI-H226 lung = system: NCI-H226 lung
UACC-62 melanoma = system: UACC-62 melanoma

Structure (SMILES): COc1cccc2c1C(=O)c1c(O)c3c(c(O)c1C2=O)CC(O)(/C(C)=N/NC(=O)CCC(=O)N/N=C(\C)C1(O)Cc2c(O)c4c(c(O)c2C(OC2CC(N)C(O)C(C)O2)C1)C(=O)c1c(OC)cccc1C4=O)CC3OC1CC(N)C(O)C(C)O1 (stereo not given)
- GI50 (OVCAR-5 ovarian): 1.02 µM
- TGI (OVCAR-5 ovarian): 3.68 µM
- GI50 (NCI-H460 lung): 0.0981 µM
- TGI (NCI-H460 lung): 0.947 µM
- GI50 (SK-OV-3 ovarian): 0.475 µM
- TGI (SK-OV-3 ovarian): 2.4 µM
- GI50 (OVCAR-8 ovarian): 0.306 µM
- TGI (OVCAR-8 ovarian): > 50 µM
- GI50 (UO-31 renal): 0.158 µM
- TGI (UO-31 renal): 1.09 µM
- GI50 (HT29 colon): 0.333 µM
- TGI (HT29 colon): > 10.5 µM
- GI50 (786-0 renal): 0.182 µM
- TGI (786-0 renal): 1.06 µM
- GI50 (HCT-116 colon): 0.147 µM
- TGI (HCT-116 colon): 0.914 µM
- GI50 (NCI-H226 lung): 0.324 µM
- TGI (NCI-H226 lung): 1.39 µM

Structure (SMILES): C[C@H]1Oc2cc(cnc2N)-c2c(nn(C)c2C#N)CN(C)C(=O)c2ccc(F)cc21
- GI50 (OVCAR-5 ovarian): 5.24 µM
- TGI (OVCAR-5 ovarian): > 100 µM
- GI50 (NCI-H460 lung): 28.2 µM
- TGI (NCI-H460 lung): > 100 µM
- GI50 (SK-OV-3 ovarian): 22.1 µM
- TGI (SK-OV-3 ovarian): > 87 µM
- GI50 (OVCAR-8 ovarian): 98 µM
- TGI (OVCAR-8 ovarian): > 100 µM
- GI50 (UO-31 renal): 13.9 µM
- TGI (UO-31 renal): 60.2 µM
- GI50 (HT29 colon): 5.76 µM
- TGI (HT29 colon): > 100 µM
- GI50 (786-0 renal): 36.2 µM
- TGI (786-0 renal): > 100 µM
- GI50 (UACC-62 melanoma): 22.4 µM
- TGI (UACC-62 melanoma): > 100 µM
- GI50 (HCT-116 colon): 22.9 µM
- TGI (HCT-116 colon): > 100 µM
- GI50 (NCI-H226 lung): 40.8 µM
- TGI (NCI-H226 lung): > 100 µM

Structure (SMILES): O=C1c2ccccc2C2(O)c3cc4ccccc4cc3OC12O (stereo not given)
- TGI (OVCAR-5 ovarian): > 100 µM
- TGI (NCI-H460 lung): > 100 µM
- TGI (SK-OV-3 ovarian): > 100 µM
- TGI (OVCAR-8 ovarian): > 100 µM
- TGI (HT29 colon): > 100 µM
- TGI (786-0 renal): > 100 µM
- TGI (UACC-62 melanoma): > 100 µM
- TGI (HCT-116 colon): > 100 µM
- TGI (NCI-H226 lung): > 100 µM

Structure (SMILES): O=c1[nH]c(=O)n(C2CC(O)C(CO)O2)cc1CO (stereo not given)
- GI50 (OVCAR-5 ovarian): > 100 µM
- TGI (OVCAR-5 ovarian): > 100 µM
- GI50 (NCI-H460 lung): 37.1 µM
- TGI (NCI-H460 lung): > 100 µM
- GI50 (SK-OV-3 ovarian): > 100 µM
- TGI (SK-OV-3 ovarian): > 100 µM
- GI50 (OVCAR-8 ovarian): > 100 µM
- TGI (OVCAR-8 ovarian): > 100 µM
- GI50 (UO-31 renal): > 100 µM
- TGI (UO-31 renal): > 100 µM
- GI50 (HT29 colon): > 100 µM
- TGI (HT29 colon): > 100 µM
- GI50 (786-0 renal): 5.33 µM
- TGI (786-0 renal): > 100 µM
- GI50 (UACC-62 melanoma): > 100 µM
- TGI (UACC-62 melanoma): > 100 µM
- GI50 (HCT-116 colon): > 100 µM
- TGI (HCT-116 colon): > 100 µM
- GI50 (NCI-H226 lung): > 100 µM
- TGI (NCI-H226 lung): > 100 µM

Structure (SMILES): CCCCCCC[CH2][Sn]1([CH2]CCCCCCC)[O]C(=O)c2cccnc2[S]1
- GI50 (OVCAR-5 ovarian): > 100 µM
- TGI (OVCAR-5 ovarian): > 100 µM
- GI50 (NCI-H460 lung): > 100 µM
- TGI (NCI-H460 lung): > 100 µM
- GI50 (SK-OV-3 ovarian): > 100 µM
- TGI (SK-OV-3 ovarian): > 100 µM
- GI50 (OVCAR-8 ovarian): > 100 µM
- TGI (OVCAR-8 ovarian): > 100 µM
- GI50 (UO-31 renal): > 100 µM
- TGI (UO-31 renal): > 100 µM
- GI50 (HT29 colon): > 100 µM
- TGI (HT29 colon): > 100 µM
- GI50 (786-0 renal): > 100 µM
- TGI (786-0 renal): > 100 µM
- GI50 (UACC-62 melanoma): > 100 µM
- TGI (UACC-62 melanoma): > 100 µM
- GI50 (HCT-116 colon): > 100 µM
- TGI (HCT-116 colon): > 100 µM
- GI50 (NCI-H226 lung): > 100 µM
- TGI (NCI-H226 lung): > 100 µM

Structure (SMILES): Ic1ccc(-n2nnnc2-c2cnoc2-c2ccccc2)cc1
- GI50 (OVCAR-5 ovarian): > 100 µM
- TGI (OVCAR-5 ovarian): > 100 µM
- GI50 (NCI-H460 lung): 35 µM
- TGI (NCI-H460 lung): > 100 µM
- GI50 (SK-OV-3 ovarian): > 65.4 µM
- TGI (SK-OV-3 ovarian): > 100 µM
- GI50 (OVCAR-8 ovarian): > 50.4 µM
- TGI (OVCAR-8 ovarian): > 77 µM
- GI50 (UO-31 renal): > 50.5 µM
- TGI (UO-31 renal): > 100 µM
- GI50 (HT29 colon): > 100 µM
- TGI (HT29 colon): > 100 µM
- GI50 (786-0 renal): 60.2 µM
- TGI (786-0 renal): > 100 µM
- GI50 (UACC-62 melanoma): 29.3 µM
- TGI (UACC-62 melanoma): > 83.6 µM
- GI50 (HCT-116 colon): > 43 µM
- TGI (HCT-116 colon): > 70 µM
- GI50 (NCI-H226 lung): 43 µM
- TGI (NCI-H226 lung): > 78.9 µM

Structure (SMILES): O=C(c1c(F)ccc(NS(=O)(=O)N2CC[C@@H](F)C2)c1F)c1c[nH]c2ncc(-c3cnc(C4CC4)nc3)cc12
- GI50 (OVCAR-5 ovarian): > 6.42 µM and 9.04 µM
- TGI (OVCAR-5 ovarian): > 10 µM and 46.4 µM
- GI50 (NCI-H460 lung): 4.25 µM and 4.67 µM
- TGI (NCI-H460 lung): > 10 µM and 26.3 µM
- GI50 (SK-OV-3 ovarian): 3.39 µM and 3.66 µM
- TGI (SK-OV-3 ovarian): > 10 µM and 21.4 µM
- GI50 (OVCAR-8 ovarian): 5.22 µM and 7.06 µM
- TGI (OVCAR-8 ovarian): > 10 µM and 55.3 µM
- GI50 (UO-31 renal): 3.41 µM and 3.79 µM
- TGI (UO-31 renal): > 10 µM and 25.5 µM
- GI50 (HT29 colon): 0.0124 µM and 0.0118 µM
- TGI (HT29 colon): > 10 µM and 12.4 µM
- GI50 (786-0 renal): 5.46 µM and 6.36 µM
- TGI (786-0 renal): > 10 µM and 56.7 µM
- GI50 (UACC-62 melanoma): 0.0033 µM and < 0.01 µM
- TGI (UACC-62 melanoma): 0.13 µM and 0.123 µM
- GI50 (HCT-116 colon): 4.52 µM and 4.11 µM
- TGI (HCT-116 colon): > 10 µM and 41.8 µM
- GI50 (NCI-H226 lung): 4.81 µM and 9.14 µM
- TGI (NCI-H226 lung): > 10 µM and 64.6 µM

Structure (SMILES): O=C(O)CSc1n[nH]c(-c2ccccc2)n1
- TGI (OVCAR-5 ovarian): > 100 µM
- TGI (NCI-H460 lung): > 100 µM
- TGI (SK-OV-3 ovarian): > 100 µM
- TGI (OVCAR-8 ovarian): > 100 µM
- TGI (UO-31 renal): > 100 µM
- TGI (HT29 colon): > 100 µM
- TGI (786-0 renal): > 100 µM
- TGI (UACC-62 melanoma): > 100 µM
- TGI (NCI-H226 lung): > 100 µM

Structure (SMILES): CCCCCCNC(=O)c1nc(-c2ccccc2)oc1Cc1ccc(OP(=O)(O)O)cc1
- GI50 (OVCAR-5 ovarian): 14.6 µM
- TGI (OVCAR-5 ovarian): 28.5 µM
- GI50 (NCI-H460 lung): 20.2 µM
- TGI (NCI-H460 lung): 43 µM
- GI50 (SK-OV-3 ovarian): 20 µM
- TGI (SK-OV-3 ovarian): 47.6 µM
- GI50 (OVCAR-8 ovarian): 20.2 µM
- TGI (OVCAR-8 ovarian): 45.6 µM
- GI50 (UO-31 renal): 12.6 µM
- TGI (UO-31 renal): 26.8 µM
- GI50 (HT29 colon): 19.5 µM
- TGI (HT29 colon): 37.8 µM
- GI50 (786-0 renal): 17.9 µM
- TGI (786-0 renal): 35.4 µM
- GI50 (UACC-62 melanoma): 14 µM
- TGI (UACC-62 melanoma): 27.9 µM
- GI50 (HCT-116 colon): 17.1 µM
- TGI (HCT-116 colon): 32.6 µM
- GI50 (NCI-H226 lung): 17 µM
- TGI (NCI-H226 lung): 33.5 µM

Structure (SMILES): Cc1c(Cl)cccc1N1C(=O)C(Cl)=C(Cl)C1=O
- TGI (OVCAR-5 ovarian): > 100 µM
- TGI (NCI-H460 lung): > 100 µM
- TGI (SK-OV-3 ovarian): > 100 µM
- TGI (OVCAR-8 ovarian): > 100 µM
- TGI (UO-31 renal): > 100 µM
- TGI (HT29 colon): > 100 µM
- TGI (786-0 renal): > 100 µM
- TGI (UACC-62 melanoma): > 100 µM
- TGI (HCT-116 colon): > 100 µM
- TGI (NCI-H226 lung): > 100 µM

Structure (SMILES): CCN(CC)CCOc1ccc(/C=C2\CC3C4CC=C5C[C@@H](O)CC[C@]5(C)C4CC[C@]3(C)C2=O)cc1OC (stereo not given in full)
- GI50 (OVCAR-5 ovarian): 5.53 µM
- TGI (OVCAR-5 ovarian): 20.3 µM
- GI50 (NCI-H460 lung): 5.42 µM
- TGI (NCI-H460 lung): > 53 µM
- GI50 (SK-OV-3 ovarian): 8.64 µM
- TGI (SK-OV-3 ovarian): > 58.3 µM
- GI50 (OVCAR-8 ovarian): 1.92 µM
- TGI (OVCAR-8 ovarian): 3.74 µM
- TGI (UO-31 renal): > 100 µM
- GI50 (HT29 colon): 2.29 µM
- TGI (HT29 colon): > 100 µM
- GI50 (786-0 renal): 1.92 µM
- TGI (786-0 renal): 3.66 µM
- GI50 (UACC-62 melanoma): 1.71 µM
- TGI (UACC-62 melanoma): 3.3 µM
- GI50 (HCT-116 colon): 2.44 µM
- TGI (HCT-116 colon): 8.79 µM
- GI50 (NCI-H226 lung): 2.77 µM
- TGI (NCI-H226 lung): 8.77 µM

Structure (SMILES): NS(=O)(=O)c1ccc(N(/C=C/C(=O)C(F)(F)F)CC(=O)c2ccc(Cl)cc2)cc1
- GI50 (OVCAR-5 ovarian): 57 µM
- TGI (OVCAR-5 ovarian): > 100 µM
- GI50 (NCI-H460 lung): 31.8 µM
- TGI (NCI-H460 lung): 89 µM
- GI50 (SK-OV-3 ovarian): 69 µM
- TGI (SK-OV-3 ovarian): > 100 µM
- GI50 (OVCAR-8 ovarian): 43.4 µM
- TGI (OVCAR-8 ovarian): > 100 µM
- GI50 (UO-31 renal): 45.3 µM
- TGI (UO-31 renal): > 100 µM
- GI50 (HT29 colon): 35.6 µM
- TGI (HT29 colon): > 100 µM
- GI50 (786-0 renal): 45.2 µM
- TGI (786-0 renal): > 100 µM
- GI50 (UACC-62 melanoma): 27.7 µM
- TGI (UACC-62 melanoma): 91.6 µM
- GI50 (HCT-116 colon): 18.7 µM
- TGI (HCT-116 colon): 40 µM
- GI50 (NCI-H226 lung): 28.9 µM
- TGI (NCI-H226 lung): 94.1 µM
